From PMC5449093, “Selective inhibitors of trypanosomal uridylyl transferase RET1 establish druggability of RNA post-transcriptional modifications” (RNA Biology, 2016)
pIC50: −log10 of the molar value.

Key:
RET1 [1] = target: T1, RET1 (Trypanosoma brucei brucei, UniProt Q8WQX5, A749G/DEL18-18/G858D/N24H/V111I/W59S); test: Luciferase coupled PPi assay, 384 well format, RET1; assay type: biochemical
T1 construct: Full-length RET1 protein (975aa) was expressed in E. coli as an N-terminal GST-tagged fusion protein; made in house; host or cells: E. coli BL21 (DE3)
Description: Reactions were made up in Corning® 384 Well Low Flange White Flat Bottom Polystyrene TC-Treated Micro plates (Product #3570). RET1 enzyme was added at 0.1 μl (0.2 mgml^−1), UTP (Thermo Scientific R0471 100 mM) and RNA substrate final concentrations were equal to their Km: 50 μM and 20 nM respectively.[18] The volume was made up to 10 μl with buffer 6 (Tris pH 7.5 10 mM, KCl 10 mM, DTT 1 mM, MgCl2 3.2 mM) and the reaction was incubated 20 mins at 25°C, then heat inactivated at 65°C for 10 mins. Test compounds were added in 0.5 μl of DMSO stock solution. The positive control included of 0.5 μl of DMSO. After a 10 min cooling period, 5 μl of each of detection and conversion reagents from PPiLight™ Inorganic Pyrophosphate Assay Kit (Lonza, LT07-610) were added. Luminescence was read with a Pherastar Plus micro plate reader. IC50 determinations were carried out in triplicate using the luciferase assay protocol in a dilution series of 1 mM to 99 nM.

T. brucei = test: Treating T. brucei cultures with compounds, cell density counts; assay type: cell-based, Trypanosoma brucei; details: blood and insect forms; concentrations close to RET1 IC50 values (70μM and 2μM); Fig. S4
Description: Wild type blood form strain of trypanosomes were cultured to densities of 5 × 10^5 cells ml^−1 at 37 °C in HMI-9 medium, 1 % pen/strep, 10 % FCS, Puromycin 0.1 ug ml^−1 , zeocin 1 µg ml^−1. Test compounds in DMSO were added at varying concentrations (DMSO final concentration 1 %). The trypanosomes where then split 1/10 dilution and sub-cultured every 24 h to the same cell density (5 × 10^5 cells ml^−1). At 24 hour intervals, cell density measurements were performed using a hem cytometer. Test concentrations were determined by an initial dose finding experiment and compounds were tested at 0.2, 0.5 and 1 times a fatal dose. This was in the region of the IC50 for both compounds.

RET1 [2] = target: T1, RET1; test: Gel based assay for RET1 uridylylation activity (Sybr Gold); assay type: biochemical; details: for Inhibition of RET1 uridylation of RNA, gel verification: inhibitor 50 µM, Fig. 3; for Gel Assay (qualitative activity in gel based assay): qualitative class: inactive, moderate or strong inhibitor, inhibitor 50 µM per method
Description: Individual reactions were made up in 0.2 ml PCR tubes (Peqlab 820264-A). RET1 enzyme (see SI text) was added (0.05 μl, 0.2 mg ml^−1), UTP (Thermo Scientific R0471 100 mM) was added to a final concentration of 50 μM. RNA substrate (see SI text) was added to a final concentration of 200 nM. Inhibitors were added as required (0.5 μl in DMSO) to a final concentration of 50 μM. When no inhibitor was included 5 % (vol/vol) DMSO was added as control. The volume was made up to 10 μl in buffer D (Tris pH 7.5 10 mM, KCl 200 mM, DTT 1 mM, EDTA 0.5 mM MgCl2 3.2 mM) and the reaction was incubated for 20 mins at 27°C, then inactivated at 65°C for 10 mins. RNA loading dye (10 μl, NEB B363A) was added and tubes were heated (5 mins at 70°C), 10 μl was loaded onto 15 % TBE urea pre-cast gel (Invitrogen EC68852) and run in 1 x TBE buffer for 1.5 h at 130 V. Gels were incubated with Sybr Gold nucleic acid stain (Life Technologies S11494) for 20 mins, then imaged on an ultraviolet trans-illuminator (BioDoc-It imaging system, UVP). Experiments were carried out in duplicate for each inhibitor.

CID1 poly (U) polymerase [3] = target: T2, CID1 poly (U) polymerase (Schizosaccharomyces pombe, UniProt O13833); test: biochemical
T2 construct: purchased NEB M0337S
Description: (§1) Poly (U) polymerase from Schizosaccharomyces pombe, was obtained from NEB (M0337S). […]
(§2) Duplicate reactions were set up with each containing, 0.2 units of Cid1 enzyme, NEB (M0337S) with UTP at final concentration of 18 µM, RNA 3 nM, and buffer 6 up to a final volume of 10 µl. The reaction was done at 37°C for 20 mins, then the enzyme heat inactivated at 65 °C for 10 mins.

CID1 poly (U) polymerase [4] = test: biochemical; design: species or system Schizosaccharomyces pombe; details: RET1 over CID1, calculated from IC50 values
Description: as §1, §2

PC12 cells = system: PC12 cells; design: method as in PMID 9256496; details: concentrations of 10 μM; cited from earlier work
[5] = RET1 IC50, PPi assay 384-well follow-up, UTP 50 µM, RNA 20 nM
[6] = RET1 Inhibition IC50, selectivity experiment, Table 2

SMILES	pIC50 (RET1 [1]; [5])	pIC50 (RET1 [1]; [6])	Toxicity to trypanosomes in culture (T. brucei)	Inhibition of RET1 uridylation of RNA, gel verification (RET1 [2])	Gel Assay (qualitative activity in gel based assay) (RET1 [2])	pIC50 (CID1 poly (U) polymerase [3])	RET1 Selectivity (fold) (CID1 poly (U) polymerase [4])	Toxicity to PC12 cells (PC12 cells)
O=C(Nc1ccc(S(=O)(=O)N2CCOCC2)cc1)c1cc(Cl)ccc1NS(=O)(=O)c1ccc(Cl)s1 [Compound 1, Ataciguat]	4.15	4.14	toxic to both blood and insect forms	effectively inhibit	Strong	2.32	66	–
O=C(c1cc(O)c(O)c(O)c1)c1ccc(O)c(O)c1O [Compound 2, exifone]	5.70	5.70	toxic to both blood and insect forms	effectively inhibit	Strong	4.06	43	not toxic
